Measurements as given in patent US11713344B2 (DONG-A ST CO., LTD., priority 2017, dated 2023).

Columns and labels:
Human GLP-1 receptors = Human GLP-1 receptors (Homo sapiens, UniProt P43220); experiment: GLP-1 receptor activation assay (CRE-luciferase reporter, CHO-K1)
Method: (§1) Then, the resulting increased luciferase activity was evaluated as a measurement of the effect on each receptor activation.
(§2) After 3 hours of transfection, medium was exchanged to Alpha Minimal Essential Medium (α-MEM) comprising 10% fetal bovine serum (FBS). Next day, the medium was exchanged to α-MEM comprising the analog of the present invention and 0.1% bovine serum albumin (BSA). After 6 hours, dual luciferase assay reagent was added in the same amount as the medium in which the cells were submerged, and firefly luciferase and Renilla luciferase activities were continuously measured. Firefly luciferase activity values were corrected against Renilla luciferase activity to yield transfection efficiency.

Human glucagon receptors = Human glucagon receptors (Homo sapiens, UniProt P47871); experiment: Glucagon receptor activation assay (CRE-luciferase reporter, CHO-K1)
Human glucagon receptors, sequence (P47871 26-477): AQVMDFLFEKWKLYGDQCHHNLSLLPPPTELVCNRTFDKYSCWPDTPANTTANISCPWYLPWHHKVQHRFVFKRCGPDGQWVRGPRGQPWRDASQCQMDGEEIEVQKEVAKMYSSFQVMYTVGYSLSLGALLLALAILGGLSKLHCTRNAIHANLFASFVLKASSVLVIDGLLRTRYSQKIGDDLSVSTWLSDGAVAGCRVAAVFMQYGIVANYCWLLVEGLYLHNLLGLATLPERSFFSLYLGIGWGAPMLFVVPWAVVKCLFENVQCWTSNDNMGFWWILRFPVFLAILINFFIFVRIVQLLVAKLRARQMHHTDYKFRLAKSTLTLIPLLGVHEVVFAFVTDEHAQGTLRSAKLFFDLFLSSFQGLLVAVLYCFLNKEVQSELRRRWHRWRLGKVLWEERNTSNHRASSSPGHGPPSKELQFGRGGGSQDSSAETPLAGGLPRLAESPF
Method: as §1, §2

Human GLP-1 receptors, sequence (P43220 24-463): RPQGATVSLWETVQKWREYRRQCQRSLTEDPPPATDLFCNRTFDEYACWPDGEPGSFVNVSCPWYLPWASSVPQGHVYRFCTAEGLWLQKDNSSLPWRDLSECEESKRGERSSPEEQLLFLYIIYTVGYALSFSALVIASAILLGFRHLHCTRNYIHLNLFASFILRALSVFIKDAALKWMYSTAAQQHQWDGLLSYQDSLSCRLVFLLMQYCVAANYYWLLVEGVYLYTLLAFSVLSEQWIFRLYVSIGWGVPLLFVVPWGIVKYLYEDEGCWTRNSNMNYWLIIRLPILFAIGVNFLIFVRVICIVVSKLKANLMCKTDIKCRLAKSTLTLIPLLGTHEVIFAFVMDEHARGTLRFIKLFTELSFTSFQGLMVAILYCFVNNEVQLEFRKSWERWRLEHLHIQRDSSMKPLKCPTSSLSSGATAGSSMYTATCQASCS

| Structure (SMILES) | EC50 (Human GLP-1 receptors) [nM] | EC50 (Human glucagon receptors) [nM] |
| --- | --- | --- |
| CCCCCCCCCCCCCCCCCC(=O)N[C@@H](CCC(=O)NCCOCCOCC(=O)NCCOCCOCC(=O)NCCCC[C@H](NC(=O)[C@H](CC(=O)O)NC(=O)[C@H](CO)NC(=O)[C@@H](NC(=O)[C@H](Cc1ccccc1)NC(=O)[C@@H](NC(=O)CNC(=O)[C@H](CCC(N)=O)NC(=O)C(C)(C)NC(=O)[C@@H](N)Cc1c[nH]cn1)[C@@H](C)O)[C@@H](C)O)C(=O)N[C@@H](CO)C(=O)N[C@@H](CCCCN)C(=O)N[C@@H](Cc1ccc(O)cc1)C(=O)N[C@@H](CC(C)C)C(=O)N[C@@H](CC(=O)O)C(=O)NC(C)(C)C(=O)N[C@@H](CCCNC(=N)N)C(=O)N[C@@H](CCCNC(=N)N)C(=O)N[C@@H](C)C(=O)N[C@@H](CCC(N)=O)C(=O)N[C@@H](CC(=O)O)C(=O)N[C@@H](Cc1ccccc1)C(=O)N[C@H](C(=O)N[C@@H](CCC(N)=O)C(=O)N[C@@H](Cc1c[nH]c2ccccc12)C(=O)N[C@@H](CC(C)C)C(=O)N[C@@H](CCSC)C(=O)N[C@@H](CC(N)=O)C(=O)N[C@H](C(=O)N[C@@H](CCCCN)C(=O)O)[C@@H](C)O)C(C)C)C(=O)O [Compound 3] | < 0.01 | < 0.01 |
| CCCCCCCCCCCCCCCCCC(=O)N[C@@H](CCC(=O)NCCOCCOCC(=O)NCCOCCOCC(=O)NCCCC[C@H](NC(=O)[C@H](CC(=O)O)NC(=O)[C@H](CO)NC(=O)[C@@H](NC(=O)[C@H](Cc1ccccc1)NC(=O)[C@@H](NC(=O)CNC(=O)[C@H](CCC(N)=O)NC(=O)C(C)(C)NC(=O)[C@@H](N)Cc1c[nH]cn1)[C@@H](C)O)[C@@H](C)O)C(=O)N[C@@H](CO)C(=O)N[C@@H](CCCCN)C(=O)N[C@@H](Cc1ccc(O)cc1)C(=O)N[C@@H](CC(C)C)C(=O)N[C@@H](CC(=O)O)C(=O)NC(C)(C)C(=O)N[C@@H](CCCNC(=N)N)C(=O)N[C@@H](CCCNC(=N)N)C(=O)N[C@@H](C)C(=O)N[C@@H](CCC(N)=O)C(=O)N[C@@H](CC(=O)O)C(=O)N[C@@H](Cc1ccccc1)C(=O)N[C@H](C(=O)N[C@@H](CCC(N)=O)C(=O)N[C@@H](Cc1c[nH]c2ccccc12)C(=O)N[C@@H](CC(C)C)C(=O)N[C@@H](CCSC)C(=O)N[C@@H](CC(N)=O)C(=O)N[C@H](C(=O)N[C@@H](CCCCN)C(N)=O)[C@@H](C)O)C(C)C)C(=O)O [Compound 6] | < 0.01 | < 0.01 |
| CCCCCCCCCCCCCCCCCC(=O)N[C@@H](CCC(=O)NCCOCCOCC(=O)NCCOCCOCC(=O)NCCCC[C@H](NC(=O)[C@H](CC(=O)O)NC(=O)[C@H](CO)NC(=O)[C@@H](NC(=O)[C@H](Cc1ccccc1)NC(=O)[C@@H](NC(=O)CNC(=O)[C@H](CCC(N)=O)NC(=O)C(C)(C)NC(=O)[C@@H](N)Cc1c[nH]cn1)[C@@H](C)O)[C@@H](C)O)C(=O)N[C@@H](CO)C(=O)N[C@@H](CCCCN)C(=O)N[C@@H](Cc1ccc(O)cc1)C(=O)N[C@@H](CC(C)C)C(=O)N[C@@H](CC(=O)O)C(=O)NC(C)(C)C(=O)N[C@@H](CCCNC(=N)N)C(=O)N[C@@H](CCCNC(=N)N)C(=O)N[C@@H](C)C(=O)N[C@@H](CCC(N)=O)C(=O)N[C@@H](CC(=O)O)C(=O)N[C@@H](Cc1ccccc1)C(=O)N[C@H](C(=O)N[C@@H](CCC(N)=O)C(=O)N[C@@H](Cc1c[nH]c2ccccc12)C(=O)N[C@@H](CC(C)C)C(=O)N[C@@H](CCSC)C(=O)N[C@@H](CC(N)=O)C(=O)N[C@H](C(=O)N[C@@H](CCCCN)C(=O)N[C@@H](CCCNC(=N)N)C(=O)N[C@@H](CC(N)=O)C(=O)N[C@@H](CCCNC(=N)N)C(=O)N[C@@H](CC(N)=O)C(=O)N[C@@H](CC(N)=O)C(=O)N[C@H](C(=O)N[C@@H](C)C(=O)O)[C@@H](C)CC)[C@@H](C)O)C(C)C)C(=O)O [Compound 7] | < 0.01 | < 0.01 |
| CCCCCCCCCCCCCCCCCCCC(=O)N[C@@H](CCC(=O)NCCOCCOCC(=O)NCCOCCOCC(=O)NCCCC[C@H](NC(=O)[C@H](CC(=O)O)NC(=O)[C@H](CO)NC(=O)[C@@H](NC(=O)[C@H](Cc1ccccc1)NC(=O)[C@@H](NC(=O)CNC(=O)[C@H](CCC(N)=O)NC(=O)C(C)(C)NC(=O)[C@@H](N)Cc1c[nH]cn1)[C@@H](C)O)[C@@H](C)O)C(=O)N[C@@H](CO)C(=O)N[C@@H](CCCCN)C(=O)N[C@@H](Cc1ccc(O)cc1)C(=O)N[C@@H](CC(C)C)C(=O)N[C@@H](CC(=O)O)C(=O)NC(C)(C)C(=O)N[C@@H](CCCNC(=N)N)C(=O)N[C@@H](CCCNC(=N)N)C(=O)N[C@@H](C)C(=O)N[C@@H](CCC(N)=O)C(=O)N[C@@H](CC(=O)O)C(=O)N[C@@H](Cc1ccccc1)C(=O)N[C@H](C(=O)N[C@@H](CCC(N)=O)C(=O)N[C@@H](Cc1c[nH]c2ccccc12)C(=O)N[C@@H](CC(C)C)C(=O)N[C@@H](CCSC)C(=O)N[C@@H](CC(N)=O)C(=O)N[C@H](C(=O)N[C@@H](CCCCN)C(=O)O)[C@@H](C)O)C(C)C)C(=O)O [Compound 8] | 0.01 to 0.1 | 0.01 to 0.1 |
| CCCCCCCCCCCCCCCCCC(=O)N[C@@H](CCC(=O)N[C@@H](CCC(=O)NCCOCCOCC(=O)NCCOCCOCC(=O)NCCCC[C@H](NC(=O)[C@H](CC(=O)O)NC(=O)[C@H](CO)NC(=O)[C@@H](NC(=O)[C@H](Cc1ccccc1)NC(=O)[C@@H](NC(=O)CNC(=O)[C@H](CCC(N)=O)NC(=O)C(C)(C)NC(=O)[C@@H](N)Cc1c[nH]cn1)[C@@H](C)O)[C@@H](C)O)C(=O)N[C@@H](CO)C(=O)N[C@@H](CCCCN)C(=O)N[C@@H](Cc1ccc(O)cc1)C(=O)N[C@@H](CC(C)C)C(=O)N[C@@H](CC(=O)O)C(=O)NC(C)(C)C(=O)N[C@@H](CCCNC(=N)N)C(=O)N[C@@H](CCCNC(=N)N)C(=O)N[C@@H](C)C(=O)N[C@@H](CCC(N)=O)C(=O)N[C@@H](CC(=O)O)C(=O)N[C@@H](Cc1ccccc1)C(=O)N[C@H](C(=O)N[C@@H](CCC(N)=O)C(=O)N[C@@H](Cc1c[nH]c2ccccc12)C(=O)N[C@@H](CC(C)C)C(=O)N[C@@H](CCSC)C(=O)N[C@@H](CC(N)=O)C(=O)N[C@H](C(=O)N[C@@H](CCCCN)C(=O)O)[C@@H](C)O)C(C)C)C(=O)O)C(=O)O [Compound 9] | < 0.01 | < 0.01 |
| CCCCCCCCCCCCCCCCCC(=O)N[C@@H](CCC(=O)NCCOCCOCC(=O)NCCOCCOCC(=O)NCCOCCOCC(=O)NCCCC[C@H](NC(=O)[C@H](CC(=O)O)NC(=O)[C@H](CO)NC(=O)[C@@H](NC(=O)[C@H](Cc1ccccc1)NC(=O)[C@@H](NC(=O)CNC(=O)[C@H](CCC(N)=O)NC(=O)C(C)(C)NC(=O)[C@@H](N)Cc1c[nH]cn1)[C@@H](C)O)[C@@H](C)O)C(=O)N[C@@H](CO)C(=O)N[C@@H](CCCCN)C(=O)N[C@@H](Cc1ccc(O)cc1)C(=O)N[C@@H](CC(C)C)C(=O)N[C@@H](CC(=O)O)C(=O)NC(C)(C)C(=O)N[C@@H](CCCNC(=N)N)C(=O)N[C@@H](CCCNC(=N)N)C(=O)N[C@@H](C)C(=O)N[C@@H](CCC(N)=O)C(=O)N[C@@H](CC(=O)O)C(=O)N[C@@H](Cc1ccccc1)C(=O)N[C@H](C(=O)N[C@@H](CCC(N)=O)C(=O)N[C@@H](Cc1c[nH]c2ccccc12)C(=O)N[C@@H](CC(C)C)C(=O)N[C@@H](CCSC)C(=O)N[C@@H](CC(N)=O)C(=O)N[C@H](C(=O)N[C@@H](CCCCN)C(=O)O)[C@@H](C)O)C(C)C)C(=O)O [Compound 10] | < 0.01 | < 0.01 |
| CCCCCCCCCCCCCCCCCC(=O)N[C@@H](CCC(=O)NCC(=O)N[C@@H](CO)C(=O)NCC(=O)N[C@@H](CO)C(=O)NCC(=O)NCC(=O)NCCCC[C@H](NC(=O)[C@H](CC(=O)O)NC(=O)[C@H](CO)NC(=O)[C@@H](NC(=O)[C@H](Cc1ccccc1)NC(=O)[C@@H](NC(=O)CNC(=O)[C@H](CCC(N)=O)NC(=O)C(C)(C)NC(=O)[C@@H](N)Cc1c[nH]cn1)[C@@H](C)O)[C@@H](C)O)C(=O)N[C@@H](CO)C(=O)N[C@@H](CCCCN)C(=O)N[C@@H](Cc1ccc(O)cc1)C(=O)N[C@@H](CC(C)C)C(=O)N[C@@H](CC(=O)O)C(=O)NC(C)(C)C(=O)N[C@@H](CCCNC(=N)N)C(=O)N[C@@H](CCCNC(=N)N)C(=O)N[C@@H](C)C(=O)N[C@@H](CCC(N)=O)C(=O)N[C@@H](CC(=O)O)C(=O)N[C@@H](Cc1ccccc1)C(=O)N[C@H](C(=O)N[C@@H](CCC(N)=O)C(=O)N[C@@H](Cc1c[nH]c2ccccc12)C(=O)N[C@@H](CC(C)C)C(=O)N[C@@H](CCSC)C(=O)N[C@@H](CC(N)=O)C(=O)N[C@H](C(=O)N[C@@H](CCCCN)C(=O)O)[C@@H](C)O)C(C)C)C(=O)O [Compound 11] | < 0.01 | 0.01 to 0.1 |
| CCCCCCCCCCCCCCCCCC(=O)N[C@@H](CCC(=O)NCCOCCOCC(=O)NCCOCCOCC(=O)NCCCC[C@H](NC(=O)[C@H](CC(=O)O)NC(=O)[C@H](CO)NC(=O)[C@@H](NC(=O)[C@H](Cc1ccccc1)NC(=O)[C@@H](NC(=O)CNC(=O)[C@H](CCC(N)=O)NC(=O)C(C)(C)NC(=O)[C@@H](N)Cc1c[nH]cn1)[C@@H](C)O)[C@@H](C)O)C(=O)N[C@@H](CO)C(=O)N[C@@H](CCCCN)C(=O)N[C@@H](Cc1ccc(O)cc1)C(=O)N[C@@H](CC(C)C)C(=O)N[C@@H](CC(=O)O)C(=O)NC(C)(C)C(=O)N[C@@H](CCCNC(=N)N)C(=O)N[C@@H](CCCNC(=N)N)C(=O)N[C@@H](C)C(=O)N[C@@H](CCC(N)=O)C(=O)N[C@@H](CC(=O)O)C(=O)N[C@@H](Cc1ccccc1)C(=O)N[C@H](C(=O)N[C@@H](CCC(N)=O)C(=O)N[C@@H](Cc1c[nH]c2ccccc12)C(=O)N[C@@H](CC(C)C)C(=O)N[C@@H](CC(C)C)C(=O)N[C@@H](CCCNC(=N)N)C(=O)N[C@@H](C)C(=O)N[C@@H](CCCCN)C(=O)O)C(C)C)C(=O)O [Compound 12] | < 0.01 | < 0.01 |
| CSCC[C@H](NC(=O)[C@H](CC(C)C)NC(=O)[C@H](Cc1c[nH]c2ccccc12)NC(=O)[C@H](CCC(N)=O)NC(=O)[C@@H](NC(=O)[C@H](Cc1ccccc1)NC(=O)[C@H](CC(=O)O)NC(=O)[C@H](CCC(N)=O)NC(=O)[C@H](C)NC(=O)[C@H](CCCNC(=N)N)NC(=O)[C@H](CCCNC(=N)N)NC(=O)C(C)(C)NC(=O)[C@H](CC(=O)O)NC(=O)[C@H](CC(C)C)NC(=O)[C@H](Cc1ccc(O)cc1)NC(=O)[C@H](CCCCN)NC(=O)[C@H](CO)NC(=O)[C@H](CCCCNC(=O)COCCOCCNC(=O)COCCOCCNC(=O)CC[C@H](NC(=O)CCCCCCCCCCCCCCCCC(N)=O)C(=O)O)NC(=O)[C@H](CC(=O)O)NC(=O)[C@H](CO)NC(=O)[C@@H](NC(=O)[C@H](Cc1ccccc1)NC(=O)[C@@H](NC(=O)CNC(=O)[C@H](CCC(N)=O)NC(=O)C(C)(C)NC(=O)[C@@H](N)Cc1c[nH]cn1)[C@@H](C)O)[C@@H](C)O)C(C)C)C(=O)N[C@@H](CC(N)=O)C(=O)N[C@H](C(=O)N[C@@H](CCCCN)C(=O)O)[C@@H](C)O [Compound 13] | 0.01 to 0.1 | 0.01 to 0.1 |
